In patent US7411083B2, “Substituted acetic acid derivatives” (Wyeth, priority 2003, dated 2008):

target: T1, recombinant human plasminogen activator inhibitor-1 (PAI-1) (Homo sapiens, UniProt P05121); test: Screening for PAI-1 inhibition (residual tPA activity, Spectrozyme-tPA chromogenic substrate); type: biochemical; conditions: test compound at 100 Um; pH 6.6 buffer, 140 nM PAI-1, 70 nM tPA
T1 construct: purchased Molecular Innovations, Royal Oak, Mich
How it was run: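 PAI-1 at 140 nM, pH 6.6 buffer, preincubated 1 h at room temperature with compound (1-100 μM final, ≤0.2% DMSO), then 70 nM tPA added for 30 min. Residual tPA activity read by Spectrozyme-tPA absorbance at 405 nm at 0 and 60 min. Inhibition taken as residual tPA activity.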

T1 sequence (P05121 24-402): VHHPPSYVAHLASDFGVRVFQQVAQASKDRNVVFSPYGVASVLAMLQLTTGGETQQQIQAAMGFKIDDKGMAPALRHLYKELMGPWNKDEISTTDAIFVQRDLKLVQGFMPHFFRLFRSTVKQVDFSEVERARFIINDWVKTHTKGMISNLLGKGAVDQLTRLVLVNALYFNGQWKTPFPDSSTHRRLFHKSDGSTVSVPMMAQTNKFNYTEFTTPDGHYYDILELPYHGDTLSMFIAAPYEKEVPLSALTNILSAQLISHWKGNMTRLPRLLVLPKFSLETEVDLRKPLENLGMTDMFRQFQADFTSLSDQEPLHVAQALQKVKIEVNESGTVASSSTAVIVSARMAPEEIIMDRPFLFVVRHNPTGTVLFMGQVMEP

SMILES | inhibition at 100 µM [%]
O=C(O)CO/N=C/c1ccc(-c2cccc(OCc3c(Cl)cccc3Cl)c2)cc1 [Compound 101, {[((1E)-{3′-[(2,6-dichlorobenzyl)oxy]-1,1′-biphenyl-4-yl}methylidene)amino]oxy}acetic acid] | 10
CC(C)(C)c1ccc(COc2ccc(-c3ccc(/C=N/OCC(=O)O)cc3)cc2)cc1 [Compound 102, {[((1E)-{4′-[(4-tert-butylbenzyl)oxy]-1,1′-biphenyl-4-yl}methylidene)amino]oxy}acetic acid] | 26
O=C(O)CO/N=C/c1ccc(-c2ccc(OCc3cccc(Br)c3)cc2)cc1 [Compound 103, {[((1E)-{4′-[(3-bromobenzyl)oxy]-1,1′-biphenyl-4-yl}methylidene)amino]oxy}acetic acid] | 62
O=C(O)CO/N=C/c1ccc(-c2ccc(OCc3cccc(Cl)c3)cc2)cc1 [Compound 104, {[((1E)-{4′-[(3-chlorobenzyl)oxy]-1,1′-biphenyl-4-yl}methylidene)amino]oxy}acetic acid] | 5
O=C(O)CO/N=C/c1ccc(-c2ccc(OCc3ccccc3)cc2)cc1 [Compound 105, [({(1E)-[4′-(benzyloxy)-1,1′-biphenyl-4-yl]methylidene}amino)oxy]acetic acid] | 5
O=C(O)CO/N=C/c1ccc(-c2ccc(OCc3cccc(C(F)(F)F)c3)cc2)cc1 [Compound 106, ({[(1E)-(4′-{[3-(trifluoromethyl)benzyl]oxy}-1,1′-biphenyl-4-yl)methylidene]amino}oxy)acetic acid] | 8
O=C(O)CO/N=C/c1ccc(-c2ccc(OCc3ccccc3Cl)cc2)cc1 [Compound 107, {[((1E)-{4′-[(2-chlorobenzyl)oxy]-1,1′-biphenyl-4-yl}methylidene)amino]oxy}acetic acid] | 30
O=C(O)CO/N=C/c1ccc(-c2ccc(OCc3ccc(Cl)c(Cl)c3)cc2)cc1 [Compound 108, {[((1E)-{4′-[(3,4-dichlorobenzyl)oxy]-1,1′-biphenyl-4-yl}methylidene)amino]oxy}acetic acid] | 58
Cc1ccc(COc2ccc(-c3ccc(/C=N/OCC(=O)O)cc3)cc2)cc1 [Compound 109, {[((1E)-{4′-[(4-methylbenzyl)oxy]-1,1′-biphenyl-4-yl}methylidene)amino]oxy}acetic acid] | 7
Cc1cccc(COc2ccc(-c3ccc(/C=N/OCC(=O)O)cc3)cc2)c1 [Compound 110, {[((1E)-{4′-[(3-methylbenzyl)oxy]-1,1′-biphenyl-4-yl}methylidene)amino]oxy}acetic acid] | 6
O=C(O)CO/N=C/c1ccc(-c2ccc(OCc3c(Cl)cccc3Cl)cc2)cc1 [Compound 111, {[((1E)-{4′-[(2,6-dichlorobenzyl)oxy]-1,1′-biphenyl-4-yl}methylidene)amino]oxy}acetic acid] | 38
CC(C)(C)c1ccc(COc2ccc(/C=N/OCC(=O)O)cc2OCc2ccc(C(C)(C)C)cc2)cc1 [Compound 112, {[((1E)-{3,4-bis[(4-tert-butylbenzyl)oxy]phenyl}methylidene)amino]oxy}acetic acid] | 65
O=C(O)CO/N=C/c1ccc(OCc2ccc(F)cc2)c(OCc2ccc(F)cc2)c1 [Compound 113, {[((1E)-{3,4-bis[(4-fluorobenzyl)oxy]phenyl}methylidene)amino]oxy}acetic acid] | 91
O=C(O)CO/N=C/c1ccc(OCc2ccc(C(F)(F)F)cc2)c(OCc2ccc(C(F)(F)F)cc2)c1 [Compound 114, ({[(1E)-(3,4-bis{[4-(trifluoromethyl)benzyl]oxy}phenyl)methylidene]amino}oxy)acetic acid] | 93
O=C(O)CO/N=C/c1ccc(OCc2ccc(Br)cc2)c(OCc2ccc(Br)cc2)c1 [Compound 115, {[((1E)-{3,4-bis[(4-bromobenzyl)oxy]phenyl}methylidene)amino]oxy}acetic acid] | 87
O=C(O)CO/N=C/c1ccc(OCc2cccc(Cl)c2)c(OCc2cccc(Cl)c2)c1 [Compound 116, {[((1E)-{3,4-bis[(3-chlorobenzyl)oxy]phenyl}methylidene)amino]oxy}acetic acid] | 92
O=C(O)CO/N=C/c1ccc(OCc2cccc(Br)c2)c(OCc2cccc(Br)c2)c1 [Compound 117, {[((1E)-{3,4-bis[(3-bromobenzyl)oxy]phenyl}methylidene)amino]oxy}acetic acid] | 88
Cc1cccc(COc2ccc(/C=N/OCC(=O)O)cc2OCc2cccc(C)c2)c1 [Compound 118, {[((1E)-{3,4-bis[(3-methylbenzyl)oxy]phenyl}methylidene)amino]oxy}acetic acid] | 92
O=C(O)CO/N=C/c1ccc(OCc2cccc(C(F)(F)F)c2)c(OCc2cccc(C(F)(F)F)c2)c1 [Compound 119, ({[(1E)-(3,4-bis{[3-(trifluoromethyl)benzyl]oxy}phenyl)methylidene]amino}oxy)acetic acid] | 93
Cc1ccc(COc2ccc(/C=N/OCC(=O)O)cc2OCc2ccc(C)cc2)cc1 [Compound 120, {[((1E)-{3,4-bis[(4-methylbenzyl)oxy]phenyl}methylidene)amino]oxy}acetic acid] | 78
O=C(O)CO/N=C/c1ccc(OCc2ccc(F)c(F)c2)c(OCc2ccc(F)c(F)c2)c1 [Compound 121, {[((1E)-{3,4-bis[(3,4-difluorobenzyl)oxy]phenyl}methylidene)amino]oxy}acetic acid] | 72
Cc1ccc(COc2ccc(/C=N/OCC(=O)O)c(OCc3ccc(C)cc3)c2)cc1 [Compound 122, {[((1E)-{2,4-bis[(4-methylbenzyl)oxy]phenyl}methylidene)amino]oxy}acetic acid] | 87
O=C(O)CO/N=C/c1ccc(OCc2ccc(F)cc2)cc1OCc1ccc(F)cc1 [Compound 123, {[((1E)-{2,4-bis[(4-fluorobenzyl)oxy]phenyl}methylidene)amino]oxy}acetic acid] | 72
O=C(O)CO/N=C/c1ccc(OCc2ccc(C(F)(F)F)cc2)cc1OCc1ccc(C(F)(F)F)cc1 [Compound 124, ({[(1E)-(2,4-bis{[4-(trifluoromethyl)benzyl]oxy}phenyl)methylidene]amino}oxy)acetic acid] | 95
O=C(O)CO/N=C/c1ccc(OCc2ccc(Br)cc2)cc1OCc1ccc(Br)cc1 [Compound 125, {[((1E)-{2,4-bis[(4-bromobenzyl)oxy]phenyl}methylidene)amino]oxy}acetic acid] | 90
CC(C)(C)c1ccc(COc2ccc(/C=N/OCC(=O)O)c(OCc3ccc(C(C)(C)C)cc3)c2)cc1 [Compound 126, {[((1E)-{2,4-bis[(4-tert-butylbenzyl)oxy]phenyl}methylidene)amino]oxy}acetic acid] | 77
O=C(O)CO/N=C/c1ccc(OCc2cccc(Cl)c2)cc1OCc1cccc(Cl)c1 [Compound 127, {[((1E)-{2,4-bis[(3-chlorobenzyl)oxy]phenyl}methylidene)amino]oxy}acetic acid] | 88
O=C(O)CO/N=C/c1ccc(OCc2cccc(Br)c2)cc1OCc1cccc(Br)c1 [Compound 128, {[((1E)-{2,4-bis[(3-bromobenzyl)oxy]phenyl}methylidene)amino]oxy}acetic acid] | 91
